Here are results for 40 compounds from PubChem BioAssay (NCI).

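Protocol summary: plate cells (96-well), add compound at 5 concentrations, incubate 48 h, interpolate endpoints linearly. GI50: concentration for 50% inhibition of growth. TGI denotes the concentration required for complete inhibition of growth.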

The test has as its system MDA-MB-468 breast. Description: growth of human tumour cells (NCI), 48 h.
On to `C#Cc1ccc(C(=O)NCc2ccc(/C=C/C(=O)c3nccn3C)cc2)cc1`, for which the GI50 is 2.6 µM and the TGI is 8.76 µM.
For `CC(C)(Oc1cccc(N2CCC[C@@H](C(=O)N(Cc3ccc(-c4cn[nH]c4)cc3)C3CC3)C2)c1)C(=O)N1CCNCC1` the same measures were 2.23 µM and 6.8 µM.
Taken in the same sequence, the figures for `Oc1ccc(/C=N/NC(=S)Nc2ccccc2)nc1` were 1.32 µM and 4.4 µM.
With `COc1cccc(N2C(=N)/C(=C3\Nc4ccccc4S3)CC2=O)c1`, the GI50 is 26.2 µM and the TGI is > 100 µM.
For `Oc1c(Cl)cc(Cl)c(Cl)c1Cc1c(O)c(Cl)cc(Cl)c1Cl` the same measures were 0.661 µM and 8.45 µM.
As to `Cc1cc(NS(=O)(=O)c2ccc(-c3cnc(C4CC4)o3)cc2)ccc1Cl`, the GI50 is 0.165 µM and the TGI was 12.7 µM.
Taken in the same sequence, the figures for `CCN(CC)Cc1cc(Nc2ccnc3ccc(OC)cc23)ccc1O` were 1.67 µM and 4.47 µM.
Taken in the same sequence, the figures for `Cn1ccc(S(=O)(=O)N2CCC[C@H](Nc3nccc(-c4c(-c5cccc(O)c5)nc5occn45)n3)C2)n1` were 8.15 µM and 31.9 µM.
Taken in the same sequence, the figures for `Cn1cc(Nc2nccc(-c3ccc4c(c3)CN(C3COC3)CC[C@H]4NC(=O)c3cn(C(C)(C)C)nn3)n2)cn1` were 39 µM and > 100 µM.
Regarding `COC(=O)C1C(=O)C(C(=O)OC)C2CCC1N2C` (centres undefined), the GI50 is 69.5 µM and the TGI was > 100 µM.
Regarding `C=CCc1cc(O)ccc1O`, the GI50 is 14 µM and the TGI worked out at 32.4 µM.
Taken in the same sequence, the figures for `CC(C)=CCc1c2c(c(O)c3c1O[C@]14C(=C[C@@H]5C[C@H]1C(C)(C)O[C@@]4(C/C=C(/C)C(=O)O)C5=O)C3=O)C=CC(C)(C)O2` were 15.8 µM and 35.5 µM.
Take `Cc1ccc2c(-c3ccnc(Nc4cccc(C(F)(F)F)c4)n3)c(-c3ccccc3)nn2n1`: the GI50 was 0.509 µM and the TGI stood at 4.58 µM.
`COc1cc(C(=O)/C=C/c2cccnc2Nc2ccc(Cl)cc2)cc(OC)c1OC`: the GI50 is 1.29 µM and the TGI worked out at 2.67 µM.
For the compound `CC[C@]1(O)CC2CN(CCc3c([nH]c4ccccc34)C(C(=O)OC)(c3cc4c(cc3OC)N(C=O)[C@H]3[C@@](O)(C(=O)OC)[C@H](OC(C)=O)[C@]5(CC)[C@@H]6C[C@@H]6CN6CC[C@]43[C@@H]65)C2)C1` (some centres undefined), the GI50 is < 0.00325 µM and the TGI was < 0.00325 µM.
With `Cc1ccc(NC(=O)c2cc(/C=C/C(=O)NO)cc(C(F)(F)F)c2)cc1Nc1nccc(-c2cccnc2)n1`, the GI50 was 1.43 µM and the TGI is 3.94 µM.
`CCCCNC(=O)CC1=C(C)/C(=C/c2[nH]c(-c3ccc[nH]3)cc2OC)N=C1C`: the GI50 was 2.04 µM and the TGI was 7.5 µM.
For `COc1ccc(-c2cc(-c3ccc(Cl)cc3)nc(SCCCC(=O)NO)n2)cc1OC` the same measures were 1.17 µM and 4.27 µM.
With `CN1CCC(=C(c2ccc(Cl)cc2)c2ccccn2)CC1`, the GI50 is 38.9 µM and the TGI was > 100 µM.
Taken in the same sequence, the figures for `CCN(CC)CCOc1ccc(/C(=C(\C)Cc2ccc(OC)cc2)c2ccc(O)cc2)cc1` were 1.54 µM and 3.05 µM.
For `Cc1ncnc2c1ccn2[C@@H]1C[C@H](Oc2cc(C(F)F)c(F)c3c2CNCC3)[C@@H](O)[C@H]1O` the same measures were > 100 µM and > 100 µM.
With `CCNCCS(=O)(=O)NC[C@@]1(c2ccccc2)SC(NC(=O)C(C)(C)C)=NN1C(=O)C(C)(C)C`, the GI50 is < 0.01 µM.
As for `CCOC(=O)C(Cc1ccccc1)n1c(O)c(/C=N/c2ncc(Cc3ccc(Cl)cc3Cl)s2)sc1=S` (centres undefined), the GI50 was 2.48 µM and the TGI was 7.35 µM.
For `Cc1cc2c(C(C)C)c(O)c(O)c(/C=N/O)c2c(O)c1-c1c(C)cc2c(C(C)C)c(O)c(O)c(/C=N/O)c2c1O` the same measures were 2.05 µM and 6.44 µM.
For `CC(=O)NC(CCc1ccc(Cl)c(Cl)c1)c1cccc(O)c(=O)c1` (centres undefined), the GI50 is 0.442 µM and the TGI was found to be 4.07 µM.
Taken in the same sequence, the figures for `CN1C(=O)[C@@H](CC2CCCC2)N(C2CCCC2)c2nc(Nc3cc(Cl)c(O)c(Cl)c3)ncc21` were 19.1 µM and 89.9 µM.
In the case of `O=C1NC(=NCCc2ccccc2F)S/C1=C\c1ccc2ncccc2c1`, the GI50 was 2.67 µM and the TGI was > 18.6 µM.
`N#Cc1c(-c2ccccc2)nc(SCC(O)CN2CCOCC2)nc1N1CCOCC1` (centres undefined): the GI50 was 2.16 µM and the TGI came to 21.5 µM.
Turning to `CCN(CC)CCOc1ccc2c(-c3ccccc3)c(-c3ccc(OC)cc3)c(=O)oc2c1`, the GI50 was 2.58 µM and the TGI was 8.73 µM.
Taken in the same sequence, the figures for `Fc1ccc(C2CC(c3cccc(Nc4ccncc4)c3)=NN2c2ccccc2)cc1` (centres undefined) were 1.54 µM and 3.37 µM.
Regarding `O=C(Nc1nc2ccc(OC(F)(F)F)cc2s1)c1ccc(F)cc1`, the GI50 was 2.36 µM and the TGI turned out to be 7.36 µM.
For `CN(C)C/C=C/C(=O)Nc1ccc(C(=O)Nc2cccc(Nc3ncc(Cl)c(-c4c[nH]c5ccccc45)n3)c2)cc1` the same measures were 0.018 µM and 0.043 µM.
With `Cc1ccc(/C=C(/C#N)n2nnc3cccc(F)c32)cc1`, the GI50 is 0.702 µM and the TGI was 6.3 µM.
Taken in the same sequence, the figures for `CC(C)N(CCNc1nc(C(Cl)(Cl)Cl)nc2cc(Cl)ccc12)C(C)C` were 1.38 µM and 2.82 µM.
Taken in the same sequence, the figures for `COc1cc(C2C=C(C)N=C3SC=C(C)N32)cc(OC)c1OC` (centres undefined) were 1.12 µM and 2.67 µM.
For `CCN1C[C@@H](C)n2c(c(O)c3c(=O)n(Cc4ccc(F)c(Cl)c4)nc(C(=O)NC)c32)C1=O` the same measures were 2.51 µM and 8.18 µM.
In the case of `Nc1ncc(-c2ccc3ncnc(N4CCc5cc(F)c(Cl)cc54)c3c2)cc1C=O`, the GI50 is 0.306 µM and the TGI was determined as 1.63 µM.
`Cc1c(Br)c(Br)c2c3c1nc(N1CCNCC1)n3CCC2`: the GI50 is 1.6 µM and the TGI was found to be 3.31 µM.
Take `N#Cc1ncc(-c2ccc(C(F)(F)F)cc2)c(NC2CCCCCC2)n1`: the GI50 is 4.16 µM and the TGI is > 100 µM.
For `C/C=C(/C)C(=O)OC1C=C(CO)C(=O)C(OC(=O)C2(C)OC2C)C1C(C)C` (centres undefined) the same measures were 1.46 µM and 3.46 µM.
